Values of other authors as cited in article PMC5143208 (American journal of transplantation : official journal of …, 2016).

System: CCR2
Details: in vitro

d(LGTFLKC) [ECL1i]
binding to CCR2: selectively bind CCR2 in a non-competitive way
